Paper PMC10254235, “Design, Synthesis, and Anti-Cervical Cancer and Reversal of Tumor Multidrug Resistance Activity of Novel Nitrogen-Containing Heterocyclic Chalcone Derivatives” (Molecules, 2023)
Like-named read-outs stand apart in the source and are kept apart here.

Legend:
[1] = system: HUVEC cells; test: In vitro HUVEC inhibitory assay (MTT); assay type: cell-based; details: Homo sapiens, 48 h, ± SD
Protocol: (§1) HeLa and SiHa cell lines were obtained from the Procell Life Science Technology Co., Ltd. (Wuhan, China); H8 cell line was obtained from the Shanghai HonSun Biological Technology Co., Ltd. (Shanghai, China); HUVEC cell line was obtained from the Saibaikang (Shanghai) Biotechnology Co., Ltd. (Shanghai, China); HeLa/DDP cell line was obtained from the Guangzhou Jenniobio Biotechnology Co., Ltd. (Guangzhou, China). HeLa, SiHa, H8, and HeLa/DDP cells were cultured in DMEM medium (HyClone). The VEGF of 50 ng/mL was used as the promoter of the VEGFR-2 receptor on HUVEC cell membrane surfaces, and their inhibitory effects on VEGFR-2 were determined. All the mediums were supplemented with 10% FBS (HyClone, GE Healthcare, Australia). Cells were maintained at subconfluency at 37 °C in humidified air containing 5% CO2. The cells were monitored daily and maintained at 80% cell density. All compounds tested were dissolved in DMSO and then diluted by the culture medium before the treatment of cultured cells. Identification reports are available for all types of cell lines involved in this study.
(§2) The cytotoxicity of the target compounds were measured in vitro using the MTT assay. Cells grown in the logarithmic phase were counted and seeded in 96-well cell culture plates (5 × 10^3 cells per well) for 24 h to allow attachment of cells to the wall of the plate. […] Next, 20 μL of 5 mg.mL^−1 MTT solution was added to each well and cultured for 4 h. The old solution was discarded, replaced with 150 μL DMSO solution per well, and shaken for 10 min. The OD value was measured under 490 nm, and the inhibition rate was calculated. The nonlinear regression fitting of the cell growth rate was carried out using SPSS 23.0 software, and the IC50 of the compound was calculated. […] There were 6 compound holes in each group, and the experimental results were presented as the average of 3 experiments. A complete medium containing only cells was used as the blank control, whereas a complete medium without cells was the negative control group. Cisplatin and sorafenib were utilized as the positive control group, and the target compound was the experimental intervention group.
After incubation for 24 h, the cell was collected using centrifugation and washed twice using PBS chilled to 0 °C. Then, the cells were homogenized in RIPA lysis buffer and 1% PMSF, 1% mixed phosphatase inhibitor (Solarbio, Beijing, China). The lysates were incubated on ice for 30 min, intermittently vortexed every 5 min, and centrifuged at 12,000 rpm for 20 min to harvest the supernatants.

[2] = system: p-VEGFR-2 (Y1175); test: Western blot, p-VEGFR-2 in HeLa cells; assay type: cell-based, human; details: HeLa, 2, 4 and 6 μM, 24 h
Protocol: (§3) Next, the protein concentrations were determined using a BCA Protein Assay Kit (Solarbio, China). An equal amount of the proteins (12 μg) were separated using 8–12% sodium dodecyl sulfate–polyacrylamide gel electrophoresis (SDS-PAGE) and transferred to nitrocellulose membranes (Amersham Biosciences, Little Chalfont, Buckinghamshire, UK). Then, the membranes were blocked with 5% nonfat dried milk in TBS containing 1% Tween-20 for 2 h at room temperature and were incubated overnight with specific primary antibodies (CST, Boston, MA, USA) at 4 °C. After three washes in TBST, the membranes were incubated with the appropriate HRP-conjugated secondary antibodies at room temperature for 2 h. The blots were developed using enhanced chemiluminescence (Biosharp, Shanghai, China) and were detected using a PE 0723 imager (ProteinSimple, Silicon Valley, CA, USA). Each experiment was performed at least in triplicate and analyzed using Image J software (V1.8.0.112). […]

[3] = system: SiHa cells; test: MTT antiproliferative assay, SiHa cells; assay type: cell-based, human; details: Homo sapiens, 48 h, mean ± SD
Protocol: as §1, §2

[4] = system: p-AKT (Ser473); test: Western blot, p-AKT in HeLa cells; assay type: cell-based, human; details: HeLa, 2, 4 and 6 μM, 24 h
Protocol: as §3

[5] = system: p-VEGFR-2; test: Western blot, VEGFR-2 phosphorylation in HeLa/DDP cells; assay type: cell-based, human; details: 4 and 6 μM, versus blank group, p < 0.05
Protocol: as §3
To reduce the adverse reactions caused by the fixation of drug resistance reversal agents, the concentration that reduces the proliferation rate of tumor cells by less than 10% was selected. Therefore, the inhibitory activity of compound 6f on HeLa/DDP cells was determined in the concentration ranges of 0.25, 0.5, and 1 μM combined with cisplatin. […]

[6] = system: HeLa cells; test: MTT antiproliferative assay, HeLa cells; assay type: cell-based, human; details: Homo sapiens, 48 h
Protocol: as §1, §2

[7] = system: HeLa cells; test: Transwell invasion assay (Matrigel); assay type: cell-based, human; details: 24 h, control 172
Protocol: The transwell ([…], Corning Incorporated, New York, NY, USA) was precoated using 50 μL Matrigel for 5 h at 37 °C to achieve solidification. […] After 24 h of incubation at 37 °C, the invasion cells were fixed using methanol and stained using 0.1% crystal violet for 30 min, respectively. Then, the chambers were washed using PBS and left to dry. Images were photographed using an inverted fluorescence microscope (Leica, Microsystems CMS GmbH, GER) and counted using Image J software (V1.8.0.112) for three independent fields randomly.

[8] = system: Bax; test: Western blot, Bax in HeLa cells; assay type: cell-based, human; details: HeLa, 2, 4 and 6 μM, 24 h, versus control, p < 0.05
Protocol: as §3
After incubation, cells were harvested and incubated using […] of Annexin-V/FITC (BD, America) in binding buffer (10 mM HEPES, 140 mM NaCl, and 2.5 mM CaCl2 at pH 7.4) at room temperature for 15 min. […] Almost 10,000 events were collected for each sample and analyzed using flow cytometry (BD, LSRFortessa, New York, NY, USA). […]

[9] = system: HeLa cells; test: Apoptosis analysis, Annexin V-FITC/PI flow cytometry; assay type: cell-based, human; details: 24 h
Protocol: After incubation, cells were harvested and incubated using […] of Annexin-V/FITC (BD, America) in binding buffer (10 mM HEPES, 140 mM NaCl, and 2.5 mM CaCl2 at pH 7.4) at room temperature for 15 min. The PI solution was then added to the medium for another 10 min incubation. Almost 10,000 events were collected for each sample and analyzed using flow cytometry (BD, LSRFortessa, New York, NY, USA). The procedure for the remaining Western blot was the same as in Section 3.3.3.

For `COc1cc(O)c(C(=O)/C=C/c2ccc(CN3CCC(C)CC3)cc2)cc1CN1CCC(O)CC1` [6f, (E)-1-(2-hydroxy-5-((4-hydroxypiperidin-1-yl)methyl)-4-methoxyphenyl)-3-(4-((4-methylpiperidin-1-yl)methyl)phenyl)prop-2-en-1-one], the IC50 [1] was 7.14 ± 0.91 µM, the “p-VEGFR-2 (Y1175) in HeLa cells (Western blot)” value [2] was “effective downregulation” and the IC50 [3] was 7.88 ± 0.52 µM. The “p-AKT (Ser473) in HeLa cells (Western blot)” value [4] was “effective downregulation”, the “phosphorylation of VEGFR-2 in HeLa/DDP cells (Western blot)” value [5] was “noteworthy ability to impede the phosphorylation of VEGFR-2” and the IC50 ([6]; MTT, mean ± SD, read-out: 48h IC50 HeLa) was 6.52 ± 0.42 µM. The IC50 ([6]; single agent, read-out: 48h IC50 HeLa (Table 4)) was 6.52 ± 0.42 µM, the “number of invading cells” value ([7]; 2 μM) was 91 and the “number of invading cells” value ([7]; 4 μM) was 50. The “number of invading cells” value ([7]; 6 μM) was 35, the “expression of Bax (Western blot)” value [8] was “significantly upregulated the expression of Bax” and the proapoptotic rate ([9]; 2 μM) was 13.4%. For the same molecule, the proapoptotic rate ([9]; 4 μM) was 20.7% and the proapoptotic rate ([9]; 6 μM) was 34.6%.
